Measured values taken from ChEMBL document CHEMBL1126978, “Assessment of the biological value of the 11-hydroxy group of the azalides” (1993).
In brackets after ≈: the same amount, converted by molar mass.

Columns and labels:
Type in all cases: functional
Escherichia coli [1] = assay: Tested in vitro for antimicrobial activity against Escherichia coli MB 2884; value ranges from 32-64 ug/mL
Enterococcus faecalis [2] = assay: Tested in vitro for antimicrobial activity against Enterococcus faecalis MB 5407; value ranges from 1-2 ug/mL
Klebsiella pneumoniae [3] = assay: Tested in vitro for antimicrobial activity against Klebsiella pneumoniae MB 4005; value ranges from 32-64 ug/mL
Streptococcus pyogenes [4] = assay: Tested in vitro for antimicrobial activity against Streptococcus pyogenes MB 2874; value ranges from 0.03-0.06 ug/mL
Staphylococcus aureus [5] = assay: Tested in vitro for antimicrobial activity against Staphylococcus aureus MB 2865; value ranges from 0.25-0.5 ug/mL
[6] = tested on: Staphylococcus haemolyticus; assay: Tested in vitro for antimicrobial activity against Staphylococcus haemolyticus MB 5412
Streptococcus pyogenes [7] = assay: Tested in vitro for antimicrobial activity against inducibly macrolide resistant Streptococcus pyogenes MB 5406
Streptococcus pyogenes [8] = assay: Tested in vitro for antimicrobial activity against constitutively macrolide resistant Streptococcus pyogenes MB 5403
Haemophilus influenzae [9] = assay: Tested in vitro for antimicrobial activity against Haemophilus influenzae MB 5363; value ranges from 4-8 ug/mL
Enterobacter cloacae [10] = assay: Tested in vitro for antimicrobial activity against Enterobacter cloacae CL 4298; value ranges from 32-64 ug/mL
Klebsiella pneumoniae [11] = assay: Tested in vitro for antimicrobial activity against Klebsiella pneumoniae MB 4005; value ranges from 64->128 ug/mL
Enterobacter cloacae [12] = assay: Tested in vitro for antimicrobial activity against Enterobacter cloacae CL 4298; value ranges from 64->128 ug/mL
Escherichia coli [13] = assay: Tested in vitro for antimicrobial activity against Escherichia coli MB 2884; value ranges from 64->128 ug/mL
Streptococcus pyogenes [14] = assay: Tested in vitro for antimicrobial activity against Streptococcus pyogenes MB 2874; value ranges from 1-4 ug/mL
Enterococcus faecalis [15] = assay: Tested in vitro for antimicrobial activity against Enterococcus faecalis MB 5407; value ranges from 64-128 ug/mL
Haemophilus influenzae [16] = assay: Tested in vitro for antimicrobial activity against Haemophilus influenzae MB 5363; value ranges from 32->128 ug/mL
Staphylococcus aureus [17] = assay: Tested in vitro for antimicrobial activity against Staphylococcus aureus MB 2865; value ranges from 16-64 ug/mL
[18] = tested on: Staphylococcus haemolyticus; assay: Tested in vitro for antimicrobial activity against Staphylococcus haemolyticus MB 5412; value ranges from 8-32 ug/mL
Enterobacter cloacae [19] = assay: Tested in vitro for antimicrobial activity against Enterobacter cloacae CL 4298; value ranges from 4-8 ug/mL
Streptococcus pyogenes [20] = assay: Tested in vitro for antimicrobial activity against inducibly macrolide resistant Streptococcus pyogenes MB 5406; value ranges from 8-16 ug/mL
Klebsiella pneumoniae [21] = assay: Tested in vitro for antimicrobial activity against Klebsiella pneumoniae MB 4005
Escherichia coli [22] = assay: Tested in vitro for antimicrobial activity against Escherichia coli MB 2884; value ranges from 8-16 ug/mL
Enterococcus faecalis [23] = assay: Tested in vitro for antimicrobial activity against Enterococcus faecalis MB 5407; value ranges from 4-8 ug/mL
Staphylococcus aureus [24] = assay: Tested in vitro for antimicrobial activity against Staphylococcus aureus MB 2865; value ranges from 2-4 ug/mL
[25] = tested on: Staphylococcus haemolyticus; assay: Tested in vitro for antimicrobial activity against Staphylococcus haemolyticus MB 5412; value ranges from 0.5-1 ug/mL
Streptococcus pyogenes [26] = assay: Tested in vitro for antimicrobial activity against inducibly macrolide resistant Streptococcus pyogenes MB 5406; value ranges from 16-32 ug/mL
Enterobacter cloacae [27] = assay: Tested in vitro for antimicrobial activity against Enterobacter cloacae CL 4298
Klebsiella pneumoniae [28] = assay: Tested in vitro for antimicrobial activity against Klebsiella pneumoniae MB 4005; value ranges from 2-4 ug/mL
Staphylococcus aureus [29] = assay: Tested in vitro for antimicrobial activity against Staphylococcus aureus MB 2865
[30] = tested on: Staphylococcus haemolyticus; assay: Tested in vitro for antimicrobial activity against Staphylococcus haemolyticus MB 5412; value ranges from 0.25-0.5 ug/mL
Escherichia coli [31] = assay: Tested in vitro for antimicrobial activity against Escherichia coli MB 2884
Enterobacter cloacae [32] = assay: Tested in vitro for antimicrobial activity against Enterobacter cloacae CL 4298; value ranges from 0.5-2 ug/mL
Haemophilus influenzae [33] = assay: Tested in vitro for antimicrobial activity against Haemophilus influenzae MB 5363; value ranges from 1-4 ug/mL
Klebsiella pneumoniae [34] = assay: Tested in vitro for antimicrobial activity against Klebsiella pneumoniae MB 4005; value ranges from 1-2 ug/mL
[35] = tested on: Staphylococcus haemolyticus; assay: Tested in vitro for antimicrobial activity against Staphylococcus haemolyticus MB 5412; value ranges from 0.125-0.25 ug/mL
Staphylococcus aureus [36] = assay: Tested in vitro for antimicrobial activity against Staphylococcus aureus MB 2865; value ranges from 0.5-1 ug/mL
Escherichia coli [37] = assay: Tested in vitro for antimicrobial activity against Escherichia coli MB 2884; value ranges from 1-2 ug/mL
Enterococcus faecalis [38] = assay: Tested in vitro for antimicrobial activity against Enterococcus faecalis MB 5407; value ranges from 2-4 ug/mL
Enterobacter cloacae [39] = assay: Tested in vitro for antimicrobial activity against Enterobacter cloacae CL 4298; value ranges from 2-4 ug/mL
Staphylococcus aureus [40] = assay: Tested in vitro for antimicrobial activity against Staphylococcus aureus MB 2865; value ranges from 0.25-1 ug/mL
Escherichia coli [41] = assay: Tested in vitro for antimicrobial activity against Escherichia coli MB 2884; value ranges from 2-4 ug/mL
Haemophilus influenzae [42] = assay: Tested in vitro for antimicrobial activity against Haemophilus influenzae MB 5363; value ranges from 2-4 ug/mL

CC[C@H]1OC(=O)[C@H](C)[C@@H](O[C@H]2C[C@@](C)(OC)[C@@H](O)[C@H](C)O2)[C@H](C)[C@@H](O[C@@H]2O[C@H](C)C[C@H](N(C)C)[C@H]2O)[C@](C)(O)C[C@@H](C)C(=O)[C@H](C)[C@@H](O)[C@]1(C)O [ERYTHROMYCIN]
MIC (Escherichia coli [1]): 32 µg/mL (≈ 43.6 µM)
MIC (Enterococcus faecalis [2]): 1 µg/mL (≈ 1.36 µM)
MIC (Klebsiella pneumoniae [3]): 32 µg/mL (≈ 43.6 µM)
MIC (Streptococcus pyogenes [4]): 0.03 µg/mL (≈ 0.0409 µM)
MIC (Staphylococcus aureus [5]): 0.25 µg/mL (≈ 0.341 µM)
MIC [6]: 0.125 µg/mL (≈ 0.17 µM)
MIC (Streptococcus pyogenes [7]): 32 µg/mL (≈ 43.6 µM)
MIC (Streptococcus pyogenes [8]): > 128 µg/mL
MIC (Haemophilus influenzae [9]): 4 µg/mL (≈ 5.45 µM)
MIC (Enterobacter cloacae [10]): 32 µg/mL (≈ 43.6 µM)

CC[C@H]1OC(=O)[C@H](C)[C@@H](O[C@H]2C[C@@](C)(OC)[C@@H](O)[C@H](C)O2)[C@H](C)[C@@H](O[C@@H]2O[C@H](C)C[C@H](N(C)C)[C@H]2O)[C@](C)(O)C[C@@H](C)/N=C2\O[C@]1(C)C=C2C
MIC (Klebsiella pneumoniae [11]): 64 µg/mL (≈ 89.8 µM)
MIC (Enterobacter cloacae [12]): 64 µg/mL (≈ 89.8 µM)
MIC (Escherichia coli [13]): 64 µg/mL (≈ 89.8 µM)
MIC (Streptococcus pyogenes [14]): 1 µg/mL (≈ 1.4 µM)
MIC (Streptococcus pyogenes [7]): > 128 µg/mL
MIC (Enterococcus faecalis [15]): 64 µg/mL (≈ 89.8 µM)
MIC (Streptococcus pyogenes [8]): > 128 µg/mL
MIC (Haemophilus influenzae [16]): 32 µg/mL (≈ 44.9 µM)
MIC (Staphylococcus aureus [17]): 16 µg/mL (≈ 22.4 µM)
MIC [18]: 8 µg/mL (≈ 11.2 µM)

CC[C@H]1OC(=O)[C@H](C)[C@@H](O[C@H]2C[C@@](C)(OC)[C@@H](O)[C@H](C)O2)[C@H](C)[C@@H](O[C@@H]2O[C@H](C)C[C@H](N(C)C)[C@H]2O)[C@](C)(O)C[C@@H](C)N(C)C/C(C)=C/[C@]1(C)O
MIC (Enterobacter cloacae [19]): 4 µg/mL (≈ 5.47 µM)
MIC (Streptococcus pyogenes [20]): 8 µg/mL (≈ 10.9 µM)
MIC (Klebsiella pneumoniae [21]): 8 µg/mL (≈ 10.9 µM)
MIC (Streptococcus pyogenes [4]): 0.03 µg/mL (≈ 0.041 µM)
MIC (Escherichia coli [22]): 8 µg/mL (≈ 10.9 µM)
MIC (Enterococcus faecalis [23]): 4 µg/mL (≈ 5.47 µM)
MIC (Streptococcus pyogenes [8]): > 128 µg/mL
MIC (Haemophilus influenzae [9]): 4 µg/mL (≈ 5.47 µM)
MIC (Staphylococcus aureus [24]): 2 µg/mL (≈ 2.74 µM)
MIC [25]: 0.5 µg/mL (≈ 0.684 µM)

CC[C@H]1OC(=O)[C@H](C)[C@@H](O[C@H]2C[C@@](C)(OC)[C@@H](O)[C@H](C)O2)[C@H](C)[C@@H](O[C@@H]2O[C@H](C)C[C@H](N(C)C)[C@H]2O)[C@](C)(O)C[C@@H](C)N(C)C[C@H](C)C[C@]1(C)O
MIC (Streptococcus pyogenes [26]): 16 µg/mL (≈ 21.8 µM)
MIC (Enterobacter cloacae [27]): 2 µg/mL (≈ 2.73 µM)
MIC (Streptococcus pyogenes [4]): 0.03 µg/mL (≈ 0.0409 µM)
MIC (Klebsiella pneumoniae [28]): 2 µg/mL (≈ 2.73 µM)
MIC (Staphylococcus aureus [29]): 2 µg/mL (≈ 2.73 µM)
MIC (Enterococcus faecalis [23]): 4 µg/mL (≈ 5.46 µM)
MIC [30]: 0.25 µg/mL (≈ 0.341 µM)
MIC (Streptococcus pyogenes [8]): > 128 µg/mL
MIC (Escherichia coli [31]): 4 µg/mL (≈ 5.46 µM)
MIC (Haemophilus influenzae [9]): 4 µg/mL (≈ 5.46 µM)

CC[C@H]1OC(=O)[C@H](C)[C@@H](O[C@H]2C[C@@](C)(OC)[C@@H](O)[C@H](C)O2)[C@H](C)[C@@H](O[C@@H]2O[C@H](C)C[C@H](N(C)C)[C@H]2O)[C@](C)(O)C[C@@H](C)N(C)C[C@H](C)[C@@H](O)[C@]1(C)O [L-701677]
MIC (Streptococcus pyogenes [20]): 8 µg/mL (≈ 10.7 µM)
MIC (Enterobacter cloacae [32]): 0.5 µg/mL (≈ 0.668 µM)
MIC (Streptococcus pyogenes [4]): 0.03 µg/mL (≈ 0.0401 µM)
MIC (Haemophilus influenzae [33]): 1 µg/mL (≈ 1.34 µM)
MIC (Klebsiella pneumoniae [34]): 1 µg/mL (≈ 1.34 µM)
MIC [35]: 0.125 µg/mL (≈ 0.167 µM)
MIC (Staphylococcus aureus [36]): 0.5 µg/mL (≈ 0.668 µM)
MIC (Escherichia coli [37]): 1 µg/mL (≈ 1.34 µM)
MIC (Streptococcus pyogenes [8]): > 128 µg/mL
MIC (Enterococcus faecalis [38]): 2 µg/mL (≈ 2.67 µM)

CC[C@H]1OC(=O)[C@H](C)[C@@H](O[C@H]2C[C@@](C)(OC)[C@@H](O)[C@H](C)O2)[C@H](C)[C@@H](O[C@@H]2O[C@H](C)C[C@H](N(C)C)[C@H]2O)[C@](C)(O)C[C@@H](C)N(C)C[C@@H](C)C[C@]1(C)O
MIC (Enterobacter cloacae [39]): 2 µg/mL (≈ 2.73 µM)
MIC (Streptococcus pyogenes [20]): 8 µg/mL (≈ 10.9 µM)
MIC (Staphylococcus aureus [40]): 0.25 µg/mL (≈ 0.341 µM)
MIC (Streptococcus pyogenes [4]): 0.03 µg/mL (≈ 0.0409 µM)
MIC (Klebsiella pneumoniae [28]): 2 µg/mL (≈ 2.73 µM)
MIC (Escherichia coli [41]): 2 µg/mL (≈ 2.73 µM)
MIC [35]: 0.125 µg/mL (≈ 0.171 µM)
MIC (Haemophilus influenzae [42]): 2 µg/mL (≈ 2.73 µM)
MIC (Streptococcus pyogenes [8]): > 128 µg/mL
MIC (Enterococcus faecalis [38]): 2 µg/mL (≈ 2.73 µM)
